# Like-named read-outs stand apart in the source and are kept apart here.
# Assays:
# [1] = test system: HCV genotype 1b (Con1) replicon in HUH-7 cells; assay: HCV replicon luciferase reporter assay, genotype 1b; assay type: cell-based; details: Hepatitis C virus, Huh-7, 72 h, HCV genotype 1b replicon luciferase, 3 days incubation, read-out: LE_1b (EC50, range)
# Outline: (§1)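 Replicon inhibition for both genotypes was measured as Renilla luciferase signal (EnduRen, 7.5 μM final, 2 h) after 3-day, 37° C exposure of replicon-bearing HUH-7 cells in 4% FCS DMEM, 0.5% DMSO. The 1b construct carries S1179I; the 1a H77 construct carries P1496L and S2204I. Twenty-point, 3-fold dilutions were fitted four-parametrically for EC50, and CC50 was taken from multiplexed Cell Titer-Blue.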
# [2] = test system: HCV genotype 1a (H77 strain) replicon in HUH-7 cells; assay: HCV replicon luciferase reporter assay, genotype 1a; assay type: cell-based; details: Hepatitis C virus, Huh-7, 72 h, HCV genotype 1a replicon luciferase, 3 days incubation, read-out: LE_1a (EC50, range)
# Outline: as §1
Compound,EC50 [1] [nM],EC50 [2] [nM],EC50 ([1]; GETYPE1B) [nM],EC50 ([2]; GETYPE1A) [nM]
"COc1cnc(O[C@@H]2C[C@H]3C(=O)N[C@]4(C(=O)NS(=O)(=O)C5(F)CC5)C[C@H]4/C=C\CC[C@@H](C)C[C@@H](C)[C@H](NC(=O)OC(C)(C)C)C(=O)N3C2)c2cc(F)ccc12 [Compound 4045, tert-butyl (2R,6S,7R,9R,13aS,14aR,16aS,Z)-2-(7-fluoro-4-methoxyisoquinolin-1-yloxy)-14a-(1-fluorocyclopropylsulfonylcarbamoyl)-7,9-dimethyl-5,16-dioxo-1,2,3,5,6,7,8,9,10,11,13a,14,14a,15,16,16a-hexadecahydrocyclopropa[e]pyrrolo[1,2-a][1,4]diazacyclopentadecin-6-ylcarbamate]",< 5.46,< 5.46,–,–
"COc1cnc(O[C@@H]2C[C@H]3C(=O)N[C@]4(C(=O)NS(=O)(=O)C5(F)CC5)C[C@H]4/C=C\CC[C@H](C)C[C@@H](C)[C@H](NC(=O)OC(C)(C)C)C(=O)N3C2)c2cc(F)ccc12 [Compound 4046, tert-butyl (2R,6S,7R,9S,13aS,14aR,16aS,Z)-2-(7-fluoro-4-methoxyisoquinolin-1-yloxy)-14a-(1-fluorocyclopropylsulfonylcarbamoyl)-7,9-dimethyl-5,16-dioxo-1,2,3,5,6,7,8,9,10,11,13a,14,14a,15,16,16a-hexadecahydrocyclopropa[e]pyrrolo[1,2-a][1,4]diazacyclopentadecin-6-ylcarbamate]",4.82 to 103,4.82 to 103,–,–
"COc1cnc(O[C@@H]2C[C@H]3C(=O)N[C@]4(C(=O)NS(=O)(=O)C5(F)CC5)C[C@H]4/C=C\CC[C@@H](C)C[C@@H](C)[C@H](NC(=O)OCC(C)(C)C)C(=O)N3C2)c2cc(F)ccc12 [Compound 4047, neopentyl (2R,6S,7R,9R,13aS,14aR,16aS,Z)-2-(7-fluoro-4-methoxyisoquinolin-1-yloxy)-14a-(1-fluorocyclopropylsulfonylcarbamoyl)-7,9-dimethyl-5,16-dioxo-1,2,3,5,6,7,8,9,10,11,13a,14,14a,15,16,16a-hexadecahydrocyclopropa[e]pyrrolo[1,2-a][1,4]diazacyclopentadecin-6-ylcarbamate]",< 5.46,< 5.46,–,–
"COc1cnc(O[C@@H]2C[C@H]3C(=O)N[C@]4(C(=O)NS(=O)(=O)C5(F)CC5)C[C@H]4/C=C\CC[C@@H](C)C[C@@H](C)[C@H](NC(=O)OCC4(C)CC4)C(=O)N3C2)c2cc(F)ccc12 [Compound 4048, (1-methylcyclopropyl)methyl (2R,6S,7R,9R,13aS,14aR,16aS,Z)-2-(7-fluoro-4-methoxyisoquinolin-1-yloxy)-14a-(1-fluorocyclopropylsulfonylcarbamoyl)-7,9-dimethyl-5,16-dioxo-1,2,3,5,6,7,8,9,10,11,13a,14,14a,15,16,16a-hexadecahydrocyclopropa[e]pyrrolo[1,2-a][1,4]diazacyclopentadecin-6-ylcarbamate]",< 5.46,< 5.46,–,–
"COc1cc2ccnc(O[C@@H]3C[C@H]4C(=O)N[C@]5(C(=O)NS(=O)(=O)C6(F)CC6)C[C@H]5/C=C\CC[C@@H](C)C[C@@H](C)[C@H](NC(=O)OC(C)(C)C)C(=O)N4C3)c2cc1F [Compound 4049, tert-butyl (2R,6S,7R,9R,13aS,14aR,16aS,Z)-2-(7-fluoro-6-methoxyisoquinolin-1-yloxy)-14a-(1-fluorocyclopropylsulfonylcarbamoyl)-7,9-dimethyl-5,16-dioxo-1,2,3,5,6,7,8,9,10,11,13a,14,14a,15,16,16a-hexadecahydrocyclopropa[e]pyrrolo[1,2-a][1,4]diazacyclopentadecin-6-ylcarbamate]",< 5.46,< 5.46,–,–
"COc1cc2ccnc(O[C@@H]3C[C@H]4C(=O)N[C@]5(C(=O)NS(=O)(=O)C6(F)CC6)C[C@H]5/C=C\CC[C@@H](C)C[C@@H](C)[C@H](NC(=O)OCC5(C)CC5)C(=O)N4C3)c2cc1F [Compound 4050, (1-methylcyclopropyl)methyl (2R,6S,7R,9R,13aS,14aR,16aS,Z)-2-(7-fluoro-6-methoxyisoquinolin-1-yloxy)-14a-(1-fluorocyclopropylsulfonylcarbamoyl)-7,9-dimethyl-5,16-dioxo-1,2,3,5,6,7,8,9,10,11,13a,14,14a,15,16,16a-hexadecahydrocyclopropa[e]pyrrolo[1,2-a][1,4]diazacyclopentadecin-6-ylcarbamate]",< 5.46,< 5.46,–,–
"COc1cc2ccnc(O[C@@H]3C[C@H]4C(=O)N[C@]5(C(=O)NS(=O)(=O)C6(F)CC6)C[C@H]5/C=C\CC[C@@H](C)C[C@@H](C)[C@H](NC(=O)OCC(C)(C)C)C(=O)N4C3)c2cc1F [Compound 4051, neopentyl (2R,6S,7R,9R,13aS,14aR,16aS,Z)-2-(7-fluoro-6-methoxyisoquinolin-1-yloxy)-14a-(1-fluorocyclopropylsulfonylcarbamoyl)-7,9-dimethyl-5,16-dioxo-1,2,3,5,6,7,8,9,10,11,13a,14,14a,15,16,16a-hexadecahydrocyclopropa[e]pyrrolo[1,2-a][1,4]diazacyclopentadecin-6-ylcarbamate]",< 5.46,< 5.46,–,–
COc1cnc(O[C@@H]2C[C@H]3C(=O)N[C@]4(C(=O)NS(=O)(=O)C5(C)CC5)C[C@H]4/C=C\CC[C@@H](C)C[C@@H](C)[C@H](NC(=O)OC(C)(C)C(F)(F)F)C(=O)N3C2)c2ccccc12 [Compound 4052],< 5.46,< 5.46,–,–
"CCOc1cnc(O[C@@H]2C[C@H]3C(=O)N[C@]4(C(=O)NS(=O)(=O)C5(F)CC5)C[C@H]4/C=C\CC[C@@H](C)C[C@@H](C)[C@H](NC(=O)OC(C)(C)C)C(=O)N3C2)c2ccccc12 [Compound 4053, tert-butyl (2R,6S,7R,9R,13aS,14aR,16aS,Z)-2-(4-ethoxyisoquinolin-1-yloxy)-14a-(1-fluorocyclopropylsulfonylcarbamoyl)-7,9-dimethyl-5,16-dioxo-1,2,3,5,6,7,8,9,10,11,13a,14,14a,15,16,16a-hexadecahydrocyclopropa[e]pyrrolo[1,2-a][1,4]diazacyclopentadecin-6-ylcarbamate]",< 5.46,< 5.46,–,–
COc1ccc2c(O[C@@H]3C[C@H]4C(=O)N[C@]5(C(=O)NS(=O)(=O)C6CC6)C[C@H]5/C=C\CC[C@@H](C)C[C@@H](C)[C@H](NC(=O)OC5(C)CC5)C(=O)N4C3)nccc2c1 [Compound 4054],< 5.46,< 5.46,–,–
"C[C@@H]1CC/C=C\[C@@H]2C[C@@]2(C(=O)NS(=O)(=O)C2(C)CC2)NC(=O)[C@@H]2C[C@@H](Oc3ncc(OC4CC4)c4ccccc34)CN2C(=O)[C@@H](NC(=O)OC2CCCCC2)[C@H](C)C1 [Compound 4055, cyclohexyl (2R,6S,7R,9R,13aS,14aR,16aS,Z)-2-(4-cyclopropoxyisoquinolin-1-yloxy)-7,9-dimethyl-14a-(1-methylcyclopropylsulfonylcarbamoyl)-5,16-dioxo-1,2,3,5,6,7,8,9,10,11,13a,14,14a,15,16,16a-hexadecahydrocyclopropa[e]pyrrolo[1,2-a][1,4]diazacyclopentadecin-6-ylcarbamate]",< 5.46,< 5.46,–,–
"C[C@@H]1CC/C=C\[C@@H]2C[C@@]2(C(=O)NS(=O)(=O)C2(C)CC2)NC(=O)[C@@H]2C[C@@H](Oc3ncc(OC4CC4)c4ccccc34)CN2C(=O)[C@@H](NC(=O)OC(C)(C)C(F)(F)F)[C@H](C)C1 [Compound 4056, 1,1,1-trifluoro-2-methylpropan-2-yl ((2R,6S,7R,9R,13aS,14aR,16aS,Z)-2-((4-cyclopropoxyisoquinolin-1-yl)oxy)-7,9-dimethyl-14a-(((1-methylcyclopropyl)sulfonyl)carbamoyl)-5,16-dioxo-1,2,3,5,6,7,8,9,10,11,13a,14,14a,15,16,16a-hexadecahydrocyclopropa[e]pyrrolo[1,2-a][1,4]diazacyclopentadecin-6-yl)carbamate]",< 5.46,< 5.46,–,–
"COc1cnc(O[C@@H]2C[C@H]3C(=O)N[C@]4(C(=O)NS(=O)(=O)C5(C)CC5)C[C@H]4/C=C\CC[C@@H](C)C[C@@H](C)[C@H](NC(=O)OC(C)(C)C)C(=O)N3C2)c2ccccc12 [Compound 4057, tert-butyl (2R,6S,7R,9R,13aS,14aR,16aS,Z)-2-(4-methoxyisoquinolin-1-yloxy)-7,9-dimethyl-14a-(1-methylcyclopropylsulfonylcarbamoyl)-5,16-dioxo-1,2,3,5,6,7,8,9,10,11,13a,14,14a,15,16,16a-hexadecahydrocyclopropa[e]pyrrolo[1,2-a][1,4]diazacyclopentadecin-6-ylcarbamate]",< 5.46,< 5.46,–,–
COc1cnc(O[C@@H]2C[C@H]3C(=O)N[C@]4(C(=O)NS(=O)(=O)C5CC5)C[C@H]4/C=C\CC[C@@H](C)C[C@@H](C)[C@H](NC(=O)OC(C)(C)C(F)(F)F)C(=O)N3C2)c2cc(F)ccc12 [Compound 4059],–,–,< 5.46,< 5.46
COc1cnc(O[C@@H]2C[C@H]3C(=O)N[C@]4(C(=O)NS(=O)(=O)C5(C)CC5)C[C@H]4/C=C\CC[C@@H](C)C[C@@H](C)[C@H](NC(=O)OC(C)(C)C(F)(F)F)C(=O)N3C2)c2cc(F)ccc12 [Compound 4060],–,–,< 5.46,< 5.46
"CCOc1cnc(O[C@@H]2C[C@H]3C(=O)N[C@]4(C(=O)NS(=O)(=O)C5CC5)C[C@H]4/C=C\CC[C@@H](C)C[C@@H](C)[C@H](NC(=O)OC(C)(C)C)C(=O)N3C2)c2cc(F)ccc12 [Compound 4061, tert-butyl (2R,6S,7R,9R,13aS,14aR,16aS,Z)-14a-(cyclopropylsulfonylcarbamoyl)-2-(4-ethoxy-7-fluoroisoquinolin-1-yloxy)-7,9-dimethyl-5,16-dioxo-1,2,3,5,6,7,8,9,10,11,13a,14,14a,15,16,16a-hexadecahydrocyclopropa[e]pyrrolo[1,2-a][1,4]diazacyclopentadecin-6-ylcarbamate]",< 5.46,< 5.46,–,–
